Laboratory results reported in a flash point compilation (Sun et al. 2020).
Where a name gives a salt, the structure may show the parent alone.

Row | SMILES | flash point [°C]
1 | CC(=O)C1C(=O)C=C(C)OC1=O (stereo not drawn) [3-acetyl-6-methylpyran-2,4-dione] | 69.00
2 | COC(=O)/C=C(\C)OP(=O)(OC)OC [methyl (E)-3-dimethoxyphosphoryloxybut-2-enoate] | 79.00
3 | Clc1ccc2ccccc2c1 [2-chloronaphthalene] | 125.00
4 | CC=CC(=O)O [but-2-enoic acid] | 88.00
5 | Cl[Si](Cl)(Cl)C1CCCCC1 [trichloro(cyclohexyl)silane] | 91.00
6 | C=CCOCC1CO1 (stereo not drawn) [2-(prop-2-enoxymethyl)oxirane] | 57.00
7 | CCCCOC(=O)CC(C)C [butyl 3-methylbutanoate] | 53.00
8 | CC(C)=CCl [1-chloro-2-methylprop-1-ene] | -1.00
9 | C=CN1CCCC1=O [1-ethenylpyrrolidin-2-one] | 93.00
10 | CCCCOC(=O)C(C)O (stereo not drawn) [butyl 2-hydroxypropanoate] | 71.00
11 | O=CC=Cc1ccccc1 [3-phenylprop-2-enal] | 120.00
12 | CCCCCCOC(=O)CCCCCCCC(=O)OCCCCCC [dihexyl nonanedioate] | 204.00
13 | CCCCOP(=O)(O)OCCCC [dibutyl hydrogen phosphate] | 188.00
14 | CCCCCCCCCCc1ccccc1 [decylbenzene] | 107.00
15 | CCCCCCCCCCCCCCCCCC(=O)[O-].CCCCCCCCCCCCCCCCCC(=O)[O-].[Zn+2] [zinc;octadecanoate] | 277.00
16 | OCCN(CCO)CCO [2-[bis(2-hydroxyethyl)amino]ethanol] | 185.00
17 | [CH3][Hg][CH3] [dimethylmercury] | 5.00
18 | C=CCl [chloroethene] | -79.00
19 | CCN(CC)CCCN [N',N'-diethylpropane-1,3-diamine] | 59.00
20 | CC(Cl)CO (stereo not drawn) [2-chloropropan-1-ol] | 52.00
21 | O=C(O)C(Br)Br [2,2-dibromoacetic acid] | 113.00
22 | CC(C)(C)CCCCCC(=O)O [7,7-dimethyloctanoic acid] | 94.00
23 | OCC(O)CCl (stereo not drawn) [3-chloropropane-1,2-diol] | 59.00
24 | Oc1cccc(Br)c1 [3-bromophenol] | 110.00
25 | CCCCN(CCC)N=O [N-butyl-N-propylnitrous amide] | 94.00

Row | SMILES | flash point [°C]
26 | C=C(Cl)C(Cl)CCl (stereo not drawn) [2,3,4-trichlorobut-1-ene] | 63.00
27 | CCCCOCCOCCOCc1cc2c(cc1CCC)OCO2 [5-[2-(2-butoxyethoxy)ethoxymethyl]-6-propyl-1,3-benzodioxole] | 171.00
28 | OCC1CCCO1 (stereo not drawn) [oxolan-2-ylmethanol] | 75.00
29 | CCCCOC=O [butyl formate] | 18.00
30 | CN1CSC(=S)N(C)C1 [3,5-dimethyl-1,3,5-thiadiazinane-2-thione] | 93.00
31 | C/C=C/CC#N [(E)-pent-3-enenitrile] | 38.00
32 | CCCCC(C)O (stereo not drawn) [hexan-2-ol] | 41.00
33 | FC(F)(F)c1ccc(Cl)c(Cl)c1 [1,2-dichloro-4-(trifluoromethyl)benzene] | 65.00
34 | CCN(CCO)CCO [2-[ethyl(2-hydroxyethyl)amino]ethanol] | 98.00
35 | OC[C@H]1O[C@@H](OC/C=C/c2ccccc2)[C@H](O)[C@@H](O)[C@@H]1O | 187.00
36 | CC(=O)OC1CC(C)OC(C)O1 (stereo not drawn) [(2,6-dimethyl-1,3-dioxan-4-yl) acetate] | 61.00
37 | CC(=O)CCC=C(C)C [6-methylhept-5-en-2-one] | 57.00
38 | OCCCBr [3-bromopropan-1-ol] | 94.00
39 | CCCCCCCC=O [octanal] | 52.00
40 | CCCCOCCOCC(C)O (stereo not drawn) [1-(2-butoxyethoxy)propan-2-ol] | 121.00
41 | Cc1ccncc1 [4-methylpyridine] | 57.00
42 | Oc1ccc(Cl)cc1 [4-chlorophenol] | 121.00
43 | CCCCC(CC)COP(OCC(CC)CCCC)OCC(CC)CCCC (stereo not drawn) [tris(2-ethylhexyl) phosphite] | 171.00
44 | CC(C)=CCO [3-methylbut-2-en-1-ol] | 50.00
45 | C=C(C)C(=O)OCCCCCC [hexyl 2-methylprop-2-enoate] | 82.00
46 | CC(C)(C)c1ccccc1 [tert-butylbenzene] | 60.00
47 | C=C(C)C1CCC2=CC(=O)CC(C)C2(C)C1 (stereo not drawn) | 100.00
48 | COC(=O)c1ccc(C)cc1 [methyl 4-methylbenzoate] | 96.00
49 | S=C=S [methanedithione] | -30.00
50 | C=C(C)CCC [2-methylpent-1-ene] | -26.00

Row | SMILES | flash point [°C]
51 | C=CC=C [buta-1,3-diene] | -76.00
52 | COC(O)COCCOCCOCCO (stereo not drawn) [2-[2-[2-(2-hydroxyethoxy)ethoxy]ethoxy]-1-methoxyethanol] | 161.00
53 | CC(C)(C)C(=O)O [2,2-dimethylpropanoic acid] | 64.00
54 | c1ccc2sc(SSc3nc4ccccc4s3)nc2c1 [2-(1,3-benzothiazol-2-yldisulfanyl)-1,3-benzothiazole] | 270.00
55 | CC(=O)OCCOC(C)=O [2-acetyloxyethyl acetate] | 96.00
56 | C/C=C/C=O [(E)-but-2-enal] | 13.00
57 | O=[N+]([O-])c1cc(Cl)cc(Cl)c1 [1,3-dichloro-5-nitrobenzene] | 140.00
58 | CCOC(=O)CC#N [ethyl 2-cyanoacetate] | 110.00
59 | CC(O)CC(C)(C)O (stereo not drawn) [2-methylpentane-2,4-diol] | 93.00
60 | CC(C)(c1ccc(OC[C@@H]2CO2)cc1)c1ccc(OC[C@@H]2CO2)cc1 | 79.00
61 | COC(C)COC(C)COC(C)CO (stereo not drawn) [2-[2-(2-methoxypropoxy)propoxy]propan-1-ol] | 111.00
62 | COC(=O)CCCCC(=O)OC [dimethyl hexanedioate] | 107.00
63 | CCCCCCCCCc1ccc(O)cc1 [4-nonylphenol] | 113.00
64 | Cc1ccccc1[N+](=O)[O-] [1-methyl-2-nitrobenzene] | 106.00
65 | O=[N+]([O-])c1cccc2ccccc12 [1-nitronaphthalene] | 164.00
66 | C1CCOC1 [oxolane] | -14.00
67 | O=CC(Cl)(Cl)Cl [2,2,2-trichloroacetaldehyde] | 75.00
68 | c1ccc2n[nH]nc2c1 [2H-benzotriazole] | 170.00
69 | CC(C)=CCC/C(C)=C\CC/C(C)=C/CC/C=C(\C)CC/C=C(\C)CCC=C(C)C | 110.00
70 | CC(C)S [propane-2-thiol] | -34.00
71 | CCOP(=S)(OCC)Oc1ccc([N+](=O)[O-])cc1 | 120.00
72 | Clc1cccc2ccccc12 [1-chloronaphthalene] | 121.00
73 | Cc1ccc(Br)cc1 [1-bromo-4-methylbenzene] | 85.00
